Experimental data: PMC12750388, “Coumarin-1,2,3-Triazole Conjugates as Molecular Scaffolds for the Selective Induction of ROS-Driven Apoptosis in Cancer Cells in the Development of Pyruvate Kinase M2 Inhibitors” (ACS Omega, 2025)

Tests used:
[1] = test system: SCC-9 cell line; assay: MTT cell viability assay, SCC-9; type: cell-based, human; details: for IC50: MTT, 48 h; for SI SCC-9: IC50 human gingival fibroblast / IC50 SCC-9
Protocol: (§1) The viability of SCC cell lines and primary human fibroblast cells was evaluated using the MTT assay to determine half maximal inhibitory concentration (IC50). Briefly, cells were grown in triplicate in 96-well plates (5 × 10^3 cells/well) until confluence. Then the medium was removed, fresh medium was added, and the cells were returned to the incubator in the presence of different compounds. DMSO at the same concentrations was used as a 100% cell viability control. After 48 h, cells were incubated with 5 mg/mL MTT reagent (3-(4,5-dimethyl-2-thiazolyl)-2,5-diphenyl-2-H-tetrazolium bromide) (Sigma-Aldrich Co., St. Louis, MO, USA) for 3.5 h. After that, formazan crystals were dissolved in MTT solvent solution (DMSO/methanol 1:1 v/v), and the absorbance at 560 nm was evaluated using an EPOCH microplate spectrophotometer (BioTek Instruments, Winooski, VT, USA) with the background absorbance at 670 nm subtracted. Each of the 12 compounds (7a–7l) was tested at six different concentrations, ranging from 6.25 to 200 μM in cancer and normal cell lines. Control (carboplatin) was tested at six different concentrations ranging from 25 μM to 800 μM in cancer cells and from 50 μM to 1600 μM in normal cells.
(§2) Half-maximal inhibitory concentration (IC50) values were obtained from the MTT assay of at least three independent replicates through nonlinear regression analysis using GraphPad Prism 5.0 software (Intuitive Software for Science, San Diego, CA, USA). Data were presented as means ± standard deviation (SD). A log dose–response curve (inhibitor vs response) using the least-squares method was used to determine the IC50 and SD from the data. The selectivity index (SI) was calculated as the ratio between the IC50 in normal cells and the IC50 in cancer cells, obtained by dividing the IC50 of normal cells by the IC50 of cancer cells.

[2] = test system: SCC-25; assay: MTT cell viability assay, SCC-25; type: cell-based, human; details: for SI SCC-25: IC50 human gingival fibroblast / IC50 SCC-25; for IC50: MTT, 48 h
Protocol: as §1, §2

[3] = test system: erythrocytes; assay: Hemolysis assay; type: cell-based; details: human erythrocytes, 300 μM
Protocol: A hemolysis assay to evaluate surfactant effects of tested substances was performed using human blood approved by the Research Ethics Committee of Universidade Federal Fluminense (CAAE: 43134721.4.0000.5626). Erythrocytes are isolated upon three repeated centrifugation cycles at 1500 rpm for 15 min. Between each cycle of centrifugation, supernatant was removed, and a pH 7.5 PBS (phosphate-buffered saline) solution supplemented with 10 mM glucose was added to remove lysed erythrocytes. The number of cells was determined in an Automatic Cell Counter (Thermo Fisher, Waltham, MA, USA). Erythrocytes were then plated in 96-well plates at a concentration of 4 × 10^8 cells/well in triplicates, and 10 μL of compounds were added at a final concentration of 300 μM in PBS with glucose (final volume 100 μL). Ten μL of PBS was used as a negative control, and 10 μL of PBS with 0.1% Triton X-100 was used as a positive control. Data reading was performed with EPOCH (BioTek Instruments, Winooski, VT, USA) at an absorbance of 540 nm.

[4] = test system: SCC-4; assay: MTT cell viability assay, SCC-4; type: cell-based, human; details: for SI SCC-4: IC50 human gingival fibroblast / IC50 SCC-4; for IC50: MTT, 48 h
Protocol: as §1, §2

[5] = test system: Primary Gingival Fibroblast; assay: MTT cell viability assay, normal cells; type: cell-based, human; details: for IC50: MTT, 48 h, normal cells; for Average SI: average of SI for SCC-9, SCC-4 and SCC-25 versus gingival fibroblast
Protocol: as §1, §2

[6] = test system: SCC-9 cells; assay: MTT cell viability with N-acetyl-L-cysteine pretreatment; type: cell-based, human; details: SCC-9, 48 h; 7f 1 × IC50, menadione 20 μM
Protocol: The production of reactive oxygen species (ROS) was assessed by the detection of hydrogen peroxide (H2O2) using the ROS-Glo H2O2 assay kit (Promega Corporation, Madison, WI, USA; G8820). […] A plate with wells without cells was used as a control. Cells and cell-free wells remained in treatment at times of interest, and 2 h before completion of the times, well volumes were removed to reduce to 40 μL per well. Then the positive control of menadione (Sigma-Aldrich Co., St. Louis, MO, USA), a polycyclic aromatic ketone based on 1,4-naphthoquinone, was used to treat its respective well, and H2O2 substrate from the kit was added for all treatments, followed by the incubation of the plate for the remaining 2 h. Then the detection solution was added, and the plates remained at room temperature for 20 min, following the reading in the TD 20/20 luminometer (Turner Designs, Sunnyvale, CA, USA). The reading of bioluminescence detected is indicated as arbitrary units (a.u.). Additionally, the cell viability was assessed through pretreatment of cells with 10 mM N-acetyl-L-cysteine (NAC) (Sigma-Aldrich Co., St. Louis, MO, USA) for 2 h. […] At the end of the time, the MTT cell viability assay was performed.

O=C1C=C(OCc2cn(CCOc3cc(=O)oc4ccccc34)nn2)C(=O)c2ccccc21 [Compound 7b, 2-((1-(2-((2-Oxo-2H-chromen-4-yl)oxy)ethyl)-1H-1,2,3-triazol-4-yl)methoxy) naphthalene-1,4-dione]
IC50 ([1]; Homo sapiens, SCC-9): > 200 µM

O=C1C=C(NCc2cn(CCOc3cc(=O)oc4ccccc34)nn2)C(=O)c2ccccc21 [Compound 7a, 2-(((1-(2-((2-Oxo-2H-chromen-4-yl)oxy)ethyl)-1H-1,2,3-triazol-4-yl)methyl)amino) naphthalene-1,4-dione]
IC50 ([1]; Homo sapiens, SCC-9): > 200 µM

CCCCCCc1cn(CCCOc2cc(=O)oc3ccccc23)nn1 [Compound 7l, 4-(3-(4-Hexyl-1H-1,2,3-triazol-1-yl)propoxy)-2H-chromen-2-one]
IC50 ([1]; Homo sapiens, SCC-9): > 150 µM

N.N.O=C([O-])C1(C(=O)[O-])CCC1.[Pt+2] [Carboplatin, reference compound]
SI SCC-25 [2]: 1.40
IC50 [2]: 249 µM
hemolytic activity / membrane integrity [3]: neither carboplatin nor PBS affected the membrane integrity
SI SCC-9 [1]: 2.31
IC50 [1]: 150 µM
SI SCC-4 [4]: 2.45
IC50 [4]: 142 µM
IC50 [5]: 348 µM
Average SI [5]: 2.05

CC(C)=CC1=C(OCc2cn(CCOc3cc(=O)oc4ccccc34)nn2)C(=O)c2ccccc2C1=O [Compound 7c, 2-(2-Methylprop-1-en-1-yl)-3-((1-(2-((2-oxo-2H-chromen-4-yl)oxy)ethyl)-1H-1,2,3-triazol-4-yl)methoxy)naphthalene-1,4-dione]
IC50 ([2]; Homo sapiens, SCC-25): 28.5 µM
SI SCC-25 [2]: 1.08
IC50 ([1]; Homo sapiens, SCC-9): 28.9 µM
SI SCC-9 [1]: 1.07
IC50 ([4]; Homo sapiens, SCC-4): 17 µM
SI SCC-4 [4]: 1.82
IC50 ([5]; Homo sapiens, Fibroblast): 30.9 µM
Average SI [5]: 1.32

CC1=CC(=O)c2ccccc2C1=O [menadione, reference compound]
cell viability in the presence of 10 mM N-acetyl-L-cysteine (NAC) [6]: NAC protected cell death

O=c1cc(OCCCn2cc(COc3cc(=O)oc4ccccc34)nn2)c2ccccc2o1 [Compound 7g, 4-(3-(4-(((2-Oxo-2H-chromen-4-yl)oxy)methyl)-1H-1,2,3-triazol-1-yl)propoxy)-2H-chromen-2-one]
IC50 ([1]; Homo sapiens, SCC-9): > 150 µM

CCCCCCc1cn(CCOc2cc(=O)oc3ccccc23)nn1 [Compound 7j, 4-(2-(4-Hexyl-1H-1,2,3-triazol-1-yl)ethoxy)-2H-chromen-2-one]
IC50 ([1]; Homo sapiens, SCC-9): > 200 µM

CC(=O)OCc1cn(CCCOc2cc(=O)oc3ccccc23)nn1 [Compound 7h, (1-(3-((2-Oxo-2H-chromen-4-yl)oxy)propyl)-1H-1,2,3-triazol-4-yl)methyl acetate]
IC50 ([1]; Homo sapiens, SCC-9): > 200 µM

O=C1C=C(NCc2cn(CCCOc3cc(=O)oc4ccccc34)nn2)C(=O)c2ccccc21 [Compound 7e, 2-(((1-(3-((2-Oxo-2H-chromen-4-yl)oxy)propyl)-1H-1,2,3-triazol-4-yl)methyl)amino) naphthalene-1,4-dione]
IC50 ([1]; Homo sapiens, SCC-9): > 150 µM

O=c1cc(OCCn2cc(-c3ccccc3)nn2)c2ccccc2o1 [Compound 7i, 4-(2-(4-Phenyl-1H-1,2,3-triazol-1-yl)ethoxy)-2H-chromen-2-one]
IC50 ([1]; Homo sapiens, SCC-9): > 200 µM

CC(C)=CCC1=C(OCc2cn(CCOc3cc(=O)oc4ccccc34)nn2)C(=O)c2ccccc2C1=O [Compound 7d, 2-(3-Methylbut-2-en-1-yl)-3-((1-(2-((2-oxo-2H-chromen-4-yl)oxy)ethyl)-1H-1,2,3-triazol-4-yl)methoxy)naphthalene-1,4-dione]
IC50 ([1]; Homo sapiens, SCC-9): > 150 µM
